{"source": "paper PMC8903829", "about": "(eLife, 2022)", "key": {"[1]": {"experiment": "Bioanalytical assessment of plasma and brain concentrations after 6 Hz assay", "format": "in vivo, mouse", "settings": "mouse, oral, SCN8A mouse 6HZ", "method": "Approximately 0.5 mL of blood was collected from each mouse at the end of the assay via cardiac puncture under deep anesthesia. The blood samples were collected in a syringe and transferred to tubes containing EDTA. Blood was stored at 4 °C until centrifuged within 30 min of collection. Plasma was harvested and placed on dry ice and stored in a freezer set to maintain a temperature of –70°C to –80°C until analysis. Brains were harvested immediately after blood collection and placed on dry ice prior to storage in a freezer set to maintain a temperature of –70°C to –80°C until analysis.\nExtraction of plasma samples was carried out by protein precipitation using acetonitrile. Plasma samples (50 µL) were mixed with 50 µL of internal standard (IS) solution in water followed by addition of 10 µL of concentrated ortho-phosphoric acid and 200 µL of acetonitrile. Samples were vortexed for 30 seconds, centrifuged at 13,000 rpm for 20 min, decanted in to a 96-well plate, and further centrifuged at 4000 rpm for 20 min. The samples were analyzed by UHPLC-ESI-MS/MS as described below.\nPrior to extraction, pre-weighed whole brains were homogenized in 1:1 acetonitrile/water (v/v) (4 mL per mouse brain) using an IKA T18 ULTRA-TURRAX Homogenizer at the setting of 4 for approximately 2 min. The homogenate was centrifuged at 13,000 rpm for 20 min and 50 µL of the supernatant were treated exactly as described above for plasma samples. […]\nSamples were analyzed by UHPLC-ESI MS/MS using a TQ-5500 Sciex triple quadrupole mass spectrometer equipped with a Shimadzu Nexera UHPLC pump and auto-sampler system using an ACE C18 PFP, 2.50 × 50 mm, 1.7 µm particle size column and gradient elution consisting of solvent A (0.1% formic acid in water) and solvent B (0.1% formic acid in acetonitrile) starting at 20% B from 0 min to 0.4 min and then increased to 100% B from 0.4 min to 0.6 min. At 2.0 min, the mobile phase composition was switched back to […] for 1 min. The flow rate used throughout the experiment was […]. […] The UHPLC-ESI MS/MS system was controlled by Analyst 1.6.\nSample concentrations were determined using a linear calibration function, weighted 1 /X, generated by the regression of analyte to IS peak area ratios in the standard samples to their respective concentrations. Acceptance criteria for the analytical run required that the back calculated values of the standards and the QC samples fell within ±20% of their nominal values, except for the lowest standard or lower limit of quantitation (LLOQ), for which the acceptance criterion was ±25%. At least 6 out of 12 standard points had to show back-calculated values within ±20% of their nominal concentrations for the calibration to be accepted. At least three QC samples, one at each level, had to show back-calculated values within ±20% of their nominal concentrations for the whole sample batch to be valid."}, "Scn8a^N1768D/+ mice": {"tested_on": "Scn8a^N1768D/+ mice", "experiment": "Modified 6 Hz psychomotor seizure assay", "format": "in vivo, mouse", "method": "Phenytoin was formulated in physiologic saline and was administered intraperitoneally (i.p.) using a 25-gauge needle at a dose volume of 10 mL/kg. All compounds were administered 2 hr prior to electrical seizure induction for all seizure models employed in this study.\nScn8a^N1768D/+heterozygous mice were tested at 5 weeks of age (p35). The modified 6 Hz seizure assay in Scn8a^N1768D/+heterozygous mice was adapted from the traditional 6 Hz assay psychomotor seizure assay to provide a measure of in vivo on target (NaV1.6 mediated) efficacy ([Barton et al., 2001]). The modified assay used a low frequency (6 Hz) but long-duration stimulation (3 s) to induce seizures. […] An electroshock (6 Hz, 12 mA) was delivered for 3 s (at 0.3-ms pulse interval) by corneal electrodes (Electro Convulsive Therapy Unit 57,800 from Ugo Basile). Immediately prior to the electroshock, the animals’ eyes were anesthetized with a drop of Alcaine (0.5% proparacaine hydrochloride).\nAn animal was considered protected in the assay upon prevention of GTC with hindlimb extension and was then scored ‘0’. An animal displaying GTC with hindlimb extension was considered not protected and is then scored ‘1’. The experimenter scoring the seizure behavior was blinded to the treatment."}}, "note": "Where two headings read alike, the source gives them in different places.", "data": [{"smiles": "NC(=O)N1c2ccccc2C=Cc2ccccc21", "note": "[carbamazepine, Carbamazepine, reference compound]", "values": [{"measurement": "concentration at 2 h", "setting": "[1]; Scn8a N1768D/+, brain, 3 mg/kg, Study15064, 3 mg/kg, read-out: Mean [Brain]", "result": 0.943, "unit": "µM"}, {"measurement": "concentration at 2 h", "setting": "[1]; Scn8a N1768D/+, brain, 3 mg/kg, Study16152, 3 mg/kg, read-out: Mean [Brain]", "result": 2.7, "unit": "µM"}, {"measurement": "concentration at 2 h", "setting": "[1]; Scn8a N1768D/+, brain, 3 mg/kg, Study16162, 3 mg/kg, read-out: Mean [Brain]", "result": 4.89, "unit": "µM"}, {"measurement": "concentration at 2 h", "setting": "[1]; Scn8a N1768D/+, brain, 10 mg/kg, Study15064, 10 mg/kg, read-out: Mean [Brain]", "result": 2.24, "unit": "µM"}, {"measurement": "concentration at 2 h", "setting": "[1]; Scn8a N1768D/+, brain, 10 mg/kg, Study16152, 10 mg/kg, read-out: Mean [Brain]", "result": 11.4, "unit": "µM"}, {"measurement": "concentration at 2 h", "setting": "[1]; Scn8a N1768D/+, brain, 10 mg/kg, Study16162, 10 mg/kg, read-out: Mean [Brain]", "result": 15.7, "unit": "µM"}, {"measurement": "concentration at 2 h", "setting": "[1]; Scn8a N1768D/+, brain, 30 mg/kg, Study16152, 30 mg/kg, read-out: Mean [Brain]", "result": 40.7, "unit": "µM"}, {"measurement": "concentration at 2 h", "setting": "[1]; Scn8a N1768D/+, brain, 100 mg/kg, Study16162, 100 mg/kg, read-out: Mean [Brain]", "result": 130, "unit": "µM"}, {"measurement": "concentration at 2 h", "setting": "[1]; Scn8a N1768D/+, plasma, 10 mg/kg, Study16162, 10 mg/kg, read-out: Mean [Palsma]", "result": 20.7, "unit": "µM"}, {"measurement": "concentration at 2 h", "setting": "[1]; Scn8a N1768D/+, plasma, 100 mg/kg, Study16162, 100 mg/kg, read-out: Mean [Palsma]", "result": 154, "unit": "µM"}, {"measurement": "concentration at 2 h", "setting": "[1]; Scn8a^N1768D/+, plasma, 3 mg/kg, Study15064, 3 mg/kg, read-out: Mean [Palsma]", "result": 1.14, "unit": "µM"}, {"measurement": "concentration at 2 h", "setting": "[1]; Scn8a^N1768D/+, plasma, 3 mg/kg, Study16152, 3 mg/kg, read-out: Mean [Palsma]", "result": 4.75, "unit": "µM"}, {"measurement": "concentration at 2 h", "setting": "[1]; Scn8a^N1768D/+, plasma, 3 mg/kg, Study16162, 3 mg/kg, read-out: Mean [Palsma]", "result": 7.46, "unit": "µM"}, {"measurement": "concentration at 2 h", "setting": "[1]; Scn8a^N1768D/+, plasma, 10 mg/kg, Study15064, 10 mg/kg, read-out: Mean [Palsma]", "result": 5.96, "unit": "µM"}, {"measurement": "concentration at 2 h", "setting": "[1]; Scn8a^N1768D/+, plasma, 10 mg/kg, Study16152, 10 mg/kg, read-out: Mean [Palsma]", "result": 15.4, "unit": "µM"}, {"measurement": "concentration at 2 h", "setting": "[1]; Scn8a^N1768D/+, plasma, 30 mg/kg, Study16152, 30 mg/kg, read-out: Mean [Palsma]", "result": 48.7, "unit": "µM"}, {"measurement": "EC50", "setting": "Scn8a^N1768D/+ mice; Mus musculus, Scn8a^N1768D/+ 6 Hz model, 2 hr post dose (oral; phenytoin i.p.), read-out: brain EC50", "result": 9.4, "unit": "µM"}, {"measurement": "SCN8A mouse 6HZ Fraction of animals seizing", "setting": "Scn8a^N1768D/+ mice; Study15064, 3 mg/kg", "result": 0.5}, {"measurement": "SCN8A mouse 6HZ Fraction of animals seizing", "setting": "Scn8a^N1768D/+ mice; Study15064, 10 mg/kg", "result": 0.75}, {"measurement": "SCN8A mouse 6HZ Fraction of animals seizing", "setting": "Scn8a^N1768D/+ mice; Study16152, 3 mg/kg", "result": 0.75}, {"measurement": "SCN8A mouse 6HZ Fraction of animals seizing", "setting": "Scn8a^N1768D/+ mice; Study16152, 10 mg/kg", "result": 0.667}, {"measurement": "SCN8A mouse 6HZ Fraction of animals seizing", "setting": "Scn8a^N1768D/+ mice; Study16152, 30 mg/kg", "result": 0}, {"measurement": "SCN8A mouse 6HZ Fraction of animals seizing", "setting": "Scn8a^N1768D/+ mice; Study16162, 3 mg/kg", "result": 0.8}, {"measurement": "SCN8A mouse 6HZ Fraction of animals seizing", "setting": "Scn8a^N1768D/+ mice; Study16162, 10 mg/kg", "result": 0.4}, {"measurement": "SCN8A mouse 6HZ Fraction of animals seizing", "setting": "Scn8a^N1768D/+ mice; Study16162, 100 mg/kg", "result": 0}]}]}
